Results: PubChem BioAssay AID1963984 (Molecular Pharmacology Branch, DTP, NCI, 2024)

Test system: 233499-124-R-J3-PDC spheroids with HUVEC/MSC, viability
Assay: Anticancer human tumor 233499-124-R-J3-PDC patient-derived colon adenocarcinoma cell line growth inhibition [PI3K]
Conditions: for IC50: curve of first compound; for viability, T/C: stronger effect = lower value
Description: Combinatorial screen of targeted agents with the PI3K inhibitors inavolisib, alpelisib, duvelisib, and copanlisib in multi-cell type tumor spheroids
A high-throughput screen of multi-cell type tumor spheroids was designed to identify active combinations of targeted small molecules and PI3K pathway inhibitors. Complex spheroids include a stromal component modeled by human endothelial cells (HUVEC) and fibroblasts modeled by human mesenchymal stem cells (MSCs). The concentration ranges selected for each drug and investigational agent were based upon clinically achievable concentrations if the clinical Cmax of the agent was known.
Compounds. The drugs and investigational agents: inavolisib (NSC800729), alpelisib (NSC765974), duvelisib (NSC772469), copanlisib (NSC816437), ipatasertib (NSC767898), afuresertib (NSC778305), talazoparib (NSC767125), sapanisertib (NSC764658), selumetinib (NSC741078), tovorafenib (DAY101, NSC766906), vemurafenib (NSC761431), ravoxertinib (NSC781343), sotorasib (NSC818433), MRTX1133 (NSC 836407), abemaciclib (NSC 768073), palbociclib (NSC758247), venetoclax (NSC 766270), SY5609 (NSC837396), enzalutamide (NSC755605), and darolutamide (NSC825331), were obtained from the National Cancer Institute (NCI) Developmental Therapeutics Program Chemical Repository. The FDA-approved anticancer drug set is available from the NCI Developmental Therapeutics Program. […] The stock solutions were prepared in dimethyl sulfoxide (DMSO, Sigma-Aldrich, St. Louis, MO, cat. D2650) at 800-fold the tested concentration and stored at -70 degrees C prior to their use. All drugs and investigational agents were tested over a range starting from a high concentration at or near the clinical Cmax and decreasing in half-log increments. If the clinical Cmax for an agent had not been determined, the highest concentration tested was 10 microM.
Cell Culture. All cells were maintained in an incubator at 37 degrees C and 5% CO2 with 95% humidity. The PDC lines were cultured according to standard operating procedures established by the NCI PDMR (https://pdmr.cancer.gov/sops/default.htm). All PDCs were thawed and cultured in Matrigel-coated flasks prepared with a working solution of 1X Ham's F-12 nutrient mix, without supplementation (Invitrogen, Waltham, MA, cat. 11765054), 100 U/mL penicillin-streptomycin (Invitrogen, cat. 15140122), and 2.5% Matrigel (Corning Inc., Corning, NY, cat. 354248) for the first three passages. The 354836-022-R-J1-PDC, 475296-252-R-J1-PDC, and 997726-040-R-J2-PDC lines were cultured in 6A media, which includes advanced DMEM/F-12 (Thermo Fisher Scientific, cat. 12634028), 10 mM HEPES (Thermo Fisher Scientific, cat. 15630080), 1X GlutaMAX supplement (Thermo Fisher Scientific, cat. 35050061), 0.1 mg/mL primocin (InvivoGen, San Diego, CA, cat. ant-pm-2), 10% defined fetal bovine serum, heat inactivated (HyClone Laboratories Inc., Logan, UT, cat. SH30070.03HI), 50% L-WRN conditioned media (ATCC, cat. CRL-3276), 1.25 mM N-Acetyl-L-cysteine (Sigma-Aldrich, cat. A9165), 10 mM nicotinamide (Sigma-Aldrich, cat. N0636), 1X B-27 supplement (Thermo Fisher Scientific, cat. 17504044), 1X N-2 supplement (Thermo Fisher Scientific, cat. 17502048), and 10 microM Y-27632 dihydrochloride (Tocris Bioscience, Bristol, United Kingdom, cat. 1254). The 624824-186-R-J2-PDC line was cultured in 6C/Colon 1B media, which includes all 6A media components plus 50 ng/mL human EGF recombinant protein (Thermo Fisher Scientific, cat. PHG0311). […]

[1] = second compound 0.00316 µM, first compound 0.0316 µM
[2] = second compound 0.00316 µM, first compound 0.1 µM
[3] = second compound 0.01 µM, first compound 0.0316 µM
[4] = second compound 0.01 µM, first compound 0.1 µM
[5] = second compound 0.0316 µM, first compound 0.0316 µM
[6] = second compound 0.0316 µM, first compound 0.1 µM
[7] = second compound 0.1 µM, first compound 0.0316 µM
[8] = second compound 0.1 µM, first compound 0.1 µM
[9] = second compound 0.316 µM, first compound 0.0316 µM
[10] = second compound 0.316 µM, first compound 0.1 µM
[11] = second compound 1 µM, first compound 0.0316 µM
[12] = second compound 1 µM, first compound 0.1 µM
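Further: spheroids exposed to agents for seven days before readout.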
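Wherever viability, T/C is given: percent viability relative to DMSO vehicle control taken as 100%.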

CC(=O)c1c(C)c2cnc(Nc3ccc(N4CCNCC4)cn3)nc2n(C2CCCC2)c1=O + CC(Nc1ccc2c(c1)OCCn1cc(N3C(=O)OCC3C(F)F)nc1-2)C(N)=O
IC50 (second compound 0.00316 µM): > 0.1 µM
IC50 (second compound 0.01 µM): > 0.1 µM
IC50 (second compound 0.0316 µM): > 0.1 µM
IC50 (second compound 0.1 µM): > 0.1 µM
IC50 (second compound 0.316 µM): > 0.1 µM
IC50 (second compound 1 µM): > 0.1 µM
viability, T/C (second compound 0.00316 µM, first compound 0.000316 µM): 97.3%
viability, T/C (second compound 0.00316 µM, first compound 0.001 µM): 83.4%
viability, T/C (second compound 0.00316 µM, first compound 0.00316 µM): 95.7%
viability, T/C (second compound 0.00316 µM, first compound 0.01 µM): 73.7%
viability, T/C [1]: 87.8%
viability, T/C [2]: 74.2%
viability, T/C (second compound 0.01 µM, first compound 0.000316 µM): 86.4%
viability, T/C (second compound 0.01 µM, first compound 0.001 µM): 87.5%
viability, T/C (second compound 0.01 µM, first compound 0.00316 µM): 80.9%
viability, T/C (second compound 0.01 µM, first compound 0.01 µM): 89.7%
viability, T/C [3]: 86%
viability, T/C [4]: 70.6%
viability, T/C (second compound 0.0316 µM, first compound 0.000316 µM): 88.8%
viability, T/C (second compound 0.0316 µM, first compound 0.001 µM): 88.4%
viability, T/C (second compound 0.0316 µM, first compound 0.00316 µM): 76.7%
viability, T/C (second compound 0.0316 µM, first compound 0.01 µM): 89%
viability, T/C [5]: 93.2%
viability, T/C [6]: 71.2%
viability, T/C (second compound 0.1 µM, first compound 0.000316 µM): 82.6%
viability, T/C (second compound 0.1 µM, first compound 0.001 µM): 84.4%
viability, T/C (second compound 0.1 µM, first compound 0.00316 µM): 81.2%
viability, T/C (second compound 0.1 µM, first compound 0.01 µM): 101%
viability, T/C [7]: 90.2%
viability, T/C [8]: 65.2%
viability, T/C (second compound 0.316 µM, first compound 0.000316 µM): 83%
viability, T/C (second compound 0.316 µM, first compound 0.001 µM): 79.5%
viability, T/C (second compound 0.316 µM, first compound 0.00316 µM): 76.9%
viability, T/C (second compound 0.316 µM, first compound 0.01 µM): 67.2%
viability, T/C [9]: 79.3%
viability, T/C [10]: 59.6%
viability, T/C (second compound 1 µM, first compound 0.000316 µM): 76.7%
viability, T/C (second compound 1 µM, first compound 0.001 µM): 68.7%
viability, T/C (second compound 1 µM, first compound 0.00316 µM): 50%
viability, T/C (second compound 1 µM, first compound 0.01 µM): 55.3%
viability, T/C [11]: 60.1%
viability, T/C [12]: 48.9%

CNC(=O)c1ccc(N2C(=S)N(c3ccc(C#N)c(C(F)(F)F)c3)C(=O)C2(C)C)cc1F + CC(Nc1ccc2c(c1)OCCn1cc(N3C(=O)OCC3C(F)F)nc1-2)C(N)=O
IC50 (second compound 0.00316 µM): 8.07 µM
IC50 (second compound 0.01 µM): > 10 µM
IC50 (second compound 0.0316 µM): > 10 µM
IC50 (second compound 0.1 µM): > 10 µM
IC50 (second compound 0.316 µM): > 10 µM
IC50 (second compound 1 µM): 0.145 µM
viability, T/C [1]: 85.8%
viability, T/C [2]: 82.7%
viability, T/C (second compound 0.00316 µM, first compound 0.316 µM): 79.2%
viability, T/C (second compound 0.00316 µM, first compound 1 µM): 92%
viability, T/C (second compound 0.00316 µM, first compound 3.16 µM): 78.3%
viability, T/C (second compound 0.00316 µM, first compound 10 µM): 42.9%
viability, T/C [3]: 88.3%
viability, T/C [4]: 98.5%
viability, T/C (second compound 0.01 µM, first compound 0.316 µM): 95%
viability, T/C (second compound 0.01 µM, first compound 1 µM): 76.9%
viability, T/C (second compound 0.01 µM, first compound 3.16 µM): 71.2%
viability, T/C (second compound 0.01 µM, first compound 10 µM): 72.2%
viability, T/C [5]: 88.9%
viability, T/C [6]: 54.9%
viability, T/C (second compound 0.0316 µM, first compound 0.316 µM): 76%
viability, T/C (second compound 0.0316 µM, first compound 1 µM): 89.2%
viability, T/C (second compound 0.0316 µM, first compound 3.16 µM): 88.1%
viability, T/C (second compound 0.0316 µM, first compound 10 µM): 67.4%
viability, T/C [7]: 84.7%
viability, T/C [8]: 71.8%
viability, T/C (second compound 0.1 µM, first compound 0.316 µM): 94.4%
viability, T/C (second compound 0.1 µM, first compound 1 µM): 77.9%
viability, T/C (second compound 0.1 µM, first compound 3.16 µM): 69.5%
viability, T/C (second compound 0.1 µM, first compound 10 µM): 55.6%
viability, T/C [9]: 88.2%
viability, T/C [10]: 38%
viability, T/C (second compound 0.316 µM, first compound 0.316 µM): 71.2%
viability, T/C (second compound 0.316 µM, first compound 1 µM): 76.2%
viability, T/C (second compound 0.316 µM, first compound 3.16 µM): 59.1%
viability, T/C (second compound 0.316 µM, first compound 10 µM): 53.6%
viability, T/C [11]: 52.5%
viability, T/C [12]: 52.1%
viability, T/C (second compound 1 µM, first compound 0.316 µM): 42.8%
viability, T/C (second compound 1 µM, first compound 1 µM): 50.2%
viability, T/C (second compound 1 µM, first compound 3.16 µM): 43.7%
viability, T/C (second compound 1 µM, first compound 10 µM): 34.6%
